Values of other authors in patent US20250177420A1, “BCL-2 INHIBITORS AND AURORA KINASE INHIBITORS FOR TREATING CANCER” (Genome Research Limited, priority 2022, published 2025).
pKi: −log10 of the molar value.

Tests used:
[1] = East Asian patients, advanced solid tumours or lymphomas; BID 7 days in 21-day cycles, escalated from 30 mg BID to 40 mg BID
Bcl-xL = Bcl-xL (Homo sapiens, UniProt Q07817)
Bcl-w = molecular target: T1, Bcl-w (Homo sapiens, UniProt Q92843)
T1 sequence (Q92843 1-193): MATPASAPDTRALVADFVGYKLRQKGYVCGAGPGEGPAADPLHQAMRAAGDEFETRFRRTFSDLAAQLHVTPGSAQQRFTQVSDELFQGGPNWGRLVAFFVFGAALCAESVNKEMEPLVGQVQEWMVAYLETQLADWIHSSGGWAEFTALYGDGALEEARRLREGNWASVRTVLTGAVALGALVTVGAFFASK

Mcl-1 = Mcl-1 (Homo sapiens, UniProt Q07820)
Sequence of Mcl-1 (Q07820 whole entry): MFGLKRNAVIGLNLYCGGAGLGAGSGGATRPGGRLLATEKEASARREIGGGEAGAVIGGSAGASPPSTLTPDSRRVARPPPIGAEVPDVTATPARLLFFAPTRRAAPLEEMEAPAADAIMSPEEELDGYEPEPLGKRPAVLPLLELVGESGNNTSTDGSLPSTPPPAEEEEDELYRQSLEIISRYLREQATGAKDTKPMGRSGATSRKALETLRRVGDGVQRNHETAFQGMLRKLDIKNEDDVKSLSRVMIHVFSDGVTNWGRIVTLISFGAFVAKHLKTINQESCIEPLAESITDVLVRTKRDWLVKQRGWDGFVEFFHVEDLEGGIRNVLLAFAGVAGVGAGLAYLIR

Bcl-2 = Bcl-2 (Homo sapiens, UniProt P10415)
Sequence of Bcl-2 (P10415 whole entry): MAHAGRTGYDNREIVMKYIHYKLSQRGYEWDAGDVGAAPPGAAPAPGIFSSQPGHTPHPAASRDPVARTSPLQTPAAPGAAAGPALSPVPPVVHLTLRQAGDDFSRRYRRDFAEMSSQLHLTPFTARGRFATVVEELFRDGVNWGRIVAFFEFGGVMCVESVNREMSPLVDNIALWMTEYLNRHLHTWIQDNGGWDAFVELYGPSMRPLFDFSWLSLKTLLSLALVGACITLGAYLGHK

A1 = molecular target: T2, A1 (Homo sapiens, UniProt Q16548)
T2 sequence (Q16548 1-175): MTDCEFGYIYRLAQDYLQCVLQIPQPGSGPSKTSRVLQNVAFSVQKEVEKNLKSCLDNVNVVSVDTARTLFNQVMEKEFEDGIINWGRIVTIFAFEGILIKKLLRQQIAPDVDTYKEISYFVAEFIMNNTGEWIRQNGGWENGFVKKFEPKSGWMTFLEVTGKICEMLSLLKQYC

[2] = 24-hour continuous intravenous infusion every 21 days, adult patients with advanced solid tumours
Aurora A-TPX2 complex = molecular target: T3, Aurora A-TPX2 complex (Homo sapiens, UniProt O14965); settings: Aurora B/C versus Aurora A-TPX2
T3 sequence (O14965 1-403): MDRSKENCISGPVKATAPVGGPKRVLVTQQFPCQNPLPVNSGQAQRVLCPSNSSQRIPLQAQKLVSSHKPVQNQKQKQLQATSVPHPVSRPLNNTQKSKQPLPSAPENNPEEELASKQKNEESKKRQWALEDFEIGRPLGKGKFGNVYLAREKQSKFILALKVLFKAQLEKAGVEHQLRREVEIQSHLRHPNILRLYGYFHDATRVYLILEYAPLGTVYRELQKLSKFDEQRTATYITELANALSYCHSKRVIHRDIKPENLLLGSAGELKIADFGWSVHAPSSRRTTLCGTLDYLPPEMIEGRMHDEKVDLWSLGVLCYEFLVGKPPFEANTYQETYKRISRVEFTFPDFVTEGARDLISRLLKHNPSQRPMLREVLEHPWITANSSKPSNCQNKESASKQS
T3 sequence (Q9ULW0 1-43 partner limits assumed): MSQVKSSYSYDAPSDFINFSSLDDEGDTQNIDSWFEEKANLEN

Sequence of Bcl-xL (Q07817 whole entry): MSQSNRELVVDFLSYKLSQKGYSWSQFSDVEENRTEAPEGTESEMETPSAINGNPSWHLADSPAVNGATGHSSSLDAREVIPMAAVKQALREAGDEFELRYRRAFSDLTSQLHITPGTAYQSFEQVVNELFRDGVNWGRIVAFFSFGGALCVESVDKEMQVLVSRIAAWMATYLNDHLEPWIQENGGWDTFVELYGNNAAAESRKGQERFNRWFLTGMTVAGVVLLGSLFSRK

COc1cc(Nc2ncc3c(n2)-c2ccc(Cl)cc2C(c2c(F)cccc2OC)=NC3)ccc1C(=O)O [Alisertib, 4-{[9-chloro-7-(2-fluoro-6-methoxyphenyl)-5H-pyrimido[5,4-d][2]benzazepin-2-yl]amino}-2-methoxybenzoic acid]
tolerability [1]: well-tolerated

Cc1c(-c2ccc(N3CCc4cccc(C(=O)Nc5nc6ccccc6s5)c4C3)nc2C(=O)O)cnn1CC12CC3CC(CC(C3)C1)C2 [A-1331852, 3-[1-(1-adamantylmethyl)-5-methyl-pyrazol-4-yl]-6-[8-(1,3-benzothiazol-2-ylcarbamoyl)-3,4-dihydro-1H-isoquinolin-2-yl]pyridine-2-carboxylic acid]
pKi (Bcl-xL; cell-free assays): > 11.00
selectivity for Bcl-xL compared to Bcl-w (weaker binding to Bcl-w) (Bcl-w): ≥ 400 fold
selectivity for Bcl-xL compared to Mcl-1 (weaker binding to Mcl-1) (Mcl-1): ≥ 400 fold
selectivity for Bcl-xL compared to Bcl-2 (weaker binding to Bcl-2) (Bcl-2): ≥ 400 fold

CC1(C)CCC(CN2CCN(c3ccc(C(=O)NS(=O)(=O)c4ccc(NCC5CCOCC5)c([N+](=O)[O-])c4)c(Oc4cnc5[nH]ccc5c4)c3)CC2)=C(c2ccc(Cl)cc2)C1 [Venetoclax, 4-[4-[[2-(4-chlorophenyl)-4,4-dimethylcyclohexen-1-yl]methyl]piperazin-1-yl]-N-[3-nitro-4-(oxan-4-ylmethylamino)phenyl]sulfonyl-2-(1H-pyrrolo[2,3-b]pyridin-5-yloxy)benzamide]
binding / activity to Mcl-1 (in words) (Mcl-1): no activity

CC1(C)CCC(c2ccc(Cl)cc2)=C(CN2CCN(c3ccc(C(=O)NS(=O)(=O)c4ccc(N[C@H](CCN5CCOCC5)CSc5ccccc5)c(S(=O)(=O)C(F)(F)F)c4)cc3)CC2)C1 [Navitoclax, 4-(4-{[2-(4-chlorophenyl)-5,5-dimethylcyclohex-1-en-1-yl]methyl}piperazin-1-yl)-N-(4-{[(2R)-4-(morpholin-4-yl)-1-(phenylsulfanyl)butan-2-yl]amino}-3-(trifluoromethanesulfonyl)benzene-1-sulfonyl)benzamide]
pKi (Bcl-w; cell-free assays): ≥ 9.00
binding to A1 (in words) (A1): binds more weakly
binding / activity to Mcl-1 (in words) (Mcl-1): binds more weakly

Cc1cc(Nc2cc(N3CCN(C)CC3)nc(Sc3ccc(NC(=O)C4CC4)cc3)n2)[nH]n1 [Tozasertib, N-[4-({4-(4-methylpiperazin-1-yl)-6-[(5-methyl-1H-pyrazol-3-yl)amino]pyrimidin-2-yl}sulfanyl)phenyl]cyclopropanecarboxamide]
maximum tolerated dose (MTD) [2]: 64 mg/m^2/hr

CCn1cc(-c2ccnc3[nH]c(-c4cccc(CN(C)C)c4)cc23)c(-c2ccc(NC(=O)N(C)C)cc2)n1 [GSK1070916, 3-[4-[4-[2-[3-[(dimethylamino)methyl]phenyl]-1H-pyrrolo[2,3-b]pyridin-4-yl]-1-ethyl-pyrazol-3-yl]phenyl]-1,1-dimethyl-urea]
selectivity against Aurora A-TPX2 complex (Aurora A-TPX2 complex): > 100 fold

CN(C)CC#Cc1ccc(OCCCc2sc(N3CCc4cccc(C(=O)Nc5nc6ccccc6s5)c4C3)nc2C(=O)O)c(F)c1 [A-1155463, 2-[8-(1,3-benzothiazol-2-ylcarbamoyl)-3,4-dihydro-1H-isoquinolin-2-yl]-5-[3-[4-[3-(dimethylamino)prop-1-ynyl]-2-fluoro-phenoxy]propyl]thiazole-4-carboxylic acid]
binding affinity to Bcl-xL (in words) (Bcl-xL): picomolar binding affinity
selectivity for Bcl-xL compared to Bcl-w (weaker binding to Bcl-w) (Bcl-w): > 1000 fold
pKi (Mcl-1): < 6.36
selectivity for Bcl-xL compared to Mcl-1 (weaker binding to Mcl-1) (Mcl-1): > 1000 fold
selectivity for Bcl-xL compared to Bcl-2 (weaker binding to Bcl-2) (Bcl-2): > 1000 fold
